{"source": "patent US20240197678A1", "about": "“INHIBITORS OF THE PEPTIDYL-PROLYL CIS/TRANS ISOMERASE (PIN1) AND USES THEREOF” (DANA-FARBER CANCER INSTITUTE, INC., priority 2021, published 2024)", "key": {"Pin1 [1]": {"target": "T1, Pin1 (Homo sapiens, UniProt Q13526)", "T1 sequence (Q13526 whole entry)": "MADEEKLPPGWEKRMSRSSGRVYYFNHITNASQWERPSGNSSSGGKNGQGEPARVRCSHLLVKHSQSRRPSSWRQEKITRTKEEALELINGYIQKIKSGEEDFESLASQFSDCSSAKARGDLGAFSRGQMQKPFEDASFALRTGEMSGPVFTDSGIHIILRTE", "experiment": "Fluorescence polarization (FP) assay, binding to Pin1", "details": "for Ki: 1 h incubation with Pin1, read-out: Ki (binding affinity to Pin1, Kenakin Ki from FP EC50)", "description": "FIG. 3 is a fluorescence polarization readout following 1 h incubation of the indicated compounds with Pin1. Data points are plotted as the average of n=3 independent samples+SEM. Binding affinity to Pin1 was determined using a fluorescence polarization assay. Ki values obtained from the FP assay results were derived from the Kenakin Ki equation: Kenakin Ki=(Lb)(EC50)(Kd)/(Lo)(Ro)+Lb(Ro−Lo+Lb−Kd), where Kd [M]: Kd of the probe, EC50 [M]: obtained from FP assay, total tracer Lo [M]: probe concentration in FP, bound tracer Lb [M]: 85% of probe concentration binds to target protein, total receptor Ro [M]: Pin1 concentration in the FP assay, as described (Auld et al. Receptor binding assays for HTS and drug discovery. in Assay Guidance Manual eds. Sittampalam, G.S., et al. Eli Lilly & Company and the National Center for Advancing Translational Sciences, 2004)."}, "Pin1 [2]": {"target": "T1, Pin1", "experiment": "Molt4 cells competition with Pin1-3 desthiobiotin probe, streptavidin pull-down and immunoblot (Pin1 engagement)", "format": "cell-based", "parameters": "endogenous in cells; host or cells: Molt4", "details": "Molt4 cells treated 5 h, streptavidin pull-down, immunoblot", "description": "FIG. 4 is an immunoblot displaying the result of Molt4 cells treated in a competition format with the indicated concentrations of Pin1-3, Pin1-3 P1, and Pin1-3 P2 for 5 h, followed by cell lysis, incubation with TM-03-163 (Pin1-3 desthiobiotin), streptavidin pull-down, and immunoblot analysis. […] Molt4 cells were treated in a competition format with Pin1-3, Pin1-3 P1, and Pin1-3 P2 for 5 h, followed by cell lysis, incubation with […] (Pin1-3 desthiobiotin), followed by streptavidin pulldown and immunoblot analysis."}}, "note": "Entries after “also recorded” stand apart in the source; their conditions may differ.", "data": [{"compound": "CC(C)(C)CN(C(=O)CCl)[C@@H]1CCS(=O)(=O)C1", "note": "(single isomer, unassigned) [Pin1-3 P1]", "values": [{"measurement": "Ki", "setting": "Pin1 [1]", "result": "~70", "unit": "nM"}, {"measurement": "Engagement of Pin1 in Molt4 cells", "setting": "Pin1 [2]", "result": "engages Pin1 more potently than Pin1-3"}]}, {"compound": "CC(C)(C)CN(C(=O)CCl)C1CCS(=O)(=O)C1", "note": "(racemic) [Pin1-3, reference compound]", "values": [{"measurement": "Ki", "setting": "Pin1 [1]", "result": "~286", "unit": "nM"}]}, {"compound": "CC(C)(C)CN(C(=O)CCl)[C@H]1CCS(=O)(=O)C1", "note": "[Pin1-3 P2, (S)-2-chloro-N-(1,1-dioxidotetrahydrothiophen-3-yl)-N-neopentylacetamide]", "values": [{"measurement": "Ki (binding affinity to Pin1, Kenakin Ki from FP EC50)", "setting": "Pin1 [1]; 1 h incubation with Pin1", "result": "unable to be determined"}, {"measurement": "Engagement of Pin1 in Molt4 cells", "setting": "Pin1 [2]", "result": "did not display engagement; also recorded: no engagement"}]}]}
